Earlier results in patent publication US20220054538A1, “ANTI-HELICOBACTER AGENT AND METHOD FOR THE USE THEREOF” (priority 2018, published 2022).

Test system: Helicobacter pylori culture
Settings: in vitro

In the case of calcium pectate, the “effect on Helicobacter pylori culture” value is listed as “significant effect”.
